Here are results for 19 compounds from patent publication US9458181B2, “Cathepsin cysteine protease inhibitors” (Merck Sharp & Dohme Corp., priority 2013, dated 2016).

In one assay the target is human cathepsin K (UniProt P43236). In words: Cathepsin K Assay (hrbCat K). It counts as biochemical. As to conditions: human cathepsin K 0.4 nM, Z-Leu-Arg-AMC 8 μM, pH 5.5, 15 min preincubation; read-out: hrbCat K IP. As for the experimental part:
Cathepsin K Assay (hrbCat K)
(§1) Serial dilutions (⅓) from 500 μM down to 0.025 μM of test compounds were prepared in dimethyl sulfoxide (DMSO). Then 0.5 μL of DMSO from each dilution were added to 18.75 μL of assay buffer (MES, 50 mM (pH 5.5); EDTA, 2.5 mM; DTT, 2.5 mM and 10% DMSO) containing human cathepsin K (0.4 nM) in assay buffer solution. The assay solutions were mixed for 5-10 seconds on a shaker plate and incubated for 15 minutes at room temperature. Z-Leu-Arg-AMC (8 μM) in 6.25 μL of assay buffer was added to the assay solutions. Hydrolysis of the coumarin leaving group (AMC) was followed by spectrofluorometry (Exλ=360 nm; Emλ=460 nm) for 30 minutes. Percent of inhibition were calculated by fitting experimental values to standard mathematical model for dose response curve.

A further assay concerns the target T1, human cathepsin F (Homo sapiens, UniProt Q9UBX1).
T1 sequence (Q9UBX1 271-484): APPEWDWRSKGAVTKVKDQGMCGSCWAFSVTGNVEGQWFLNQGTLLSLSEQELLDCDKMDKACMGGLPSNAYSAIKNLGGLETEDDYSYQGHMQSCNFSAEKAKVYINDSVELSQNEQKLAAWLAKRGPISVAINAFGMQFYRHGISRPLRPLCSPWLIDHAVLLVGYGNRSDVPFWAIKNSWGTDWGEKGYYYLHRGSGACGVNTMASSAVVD
In words: Cathepsin F assay (hCat F). It counts as biochemical. The following applies: human cathepsin F 10 nM, Z-Phe-Arg-AMC 8 μM, pH 5.5, 15 min preincubation; read-out: hCat F IP. As for the experimental part:
Cathepsin F assay (hCat F)
as §1, with “F (10” for “K (0.4”, “Z-Phe-Arg-AMC” for “Z-Leu-Arg-AMC”, “(Exp, =360” for “(Exλ=360”, “EmX=460” for “Emλ=460”, “20” for “30”

As to `CC1CC1(C#N)NC(=O)[C@@H]1CCCC[C@H]1c1oc(-c2ccc(F)cc2)nc1-c1ccc(N2CCS(=O)(=O)CC2)cc1` (single isomer, unassigned) [Example 133, (1R,2R)-N-((2R or 2S)-1-cyano-2-methylcyclopropyl)-2-(4-(4-(1,1-dioxidothiomorpholino)phenyl)-2-(4-fluorophenyl)oxazol-5-yl)cyclohexanecarboxamide], the IC50 on human cathepsin K stood at 2.53 nM; on human cathepsin F it was 3140 nM.
On to `CC1CC1(C#N)NC(=O)[C@@H]1CCCC[C@H]1c1oc(-c2ccc(F)cc2)nc1-c1ccc(N2CCS(=O)(=O)CC2)cc1` (single isomer, unassigned) [Example 134, (1R,2R)-N-((2S or 2R)-1-cyano-2-methylcyclopropyl)-2-(4-(4-(1,1-dioxidothiomorpholino)phenyl)-2-(4-fluorophenyl)oxazol-5-yl)cyclohexanecarboxamide], for which the IC50 on human cathepsin K was 2900 nM; on human cathepsin F, no less than 10000 nM.
For `N#CC(CC(F)(F)F)NC(=O)[C@@H]1CC(F)(F)CC[C@H]1c1oc(C(F)(F)C(F)(F)F)nc1-c1ccc(C(=O)N2CCOCC2)cc1` (single isomer, unassigned) [Example 142, (1R,2R)-N-((R or S)-1-cyano-3,3,3-trifluoropropyl)-5,5 - difluoro-2-(4-(4-(morpholine-4-carbonyl)phenyl)-2-(perfluoroethyl)oxazol-5-yl)cyclohexanecarboxamide] the same measures were 1.06 nM and 446 nM.
On the same counts, the results for `N#CC(CC(F)(F)F)NC(=O)[C@@H]1CC(F)(F)CC[C@H]1c1oc(C(F)(F)C(F)(F)F)nc1-c1ccc(C(=O)N2CCOCC2)cc1` (single isomer, unassigned) [Example 143, (1R,2R)-N-((S or R)-1-cyano-3,3,3-trifluoropropyl)-5,5-difluoro-2-(4-(4-(morpholine-4-carbonyl)phenyl)-2-(perfluoroethyl)oxazol-5-yl)cyclohexanecarboxamide] are 0.54 nM and 14 nM.
In the case of `N#CC(NC(=O)[C@@H]1CC(F)(F)CC[C@H]1c1oc(C(F)(F)C(F)(F)F)nc1-c1ccc(C(=O)N2CCOCC2)cc1)C1CCOCC1` (single isomer, unassigned) [Example 144, (1R,2R)-N-((R or S)-cyano(tetrahydro-2H-pyran-4-yl)methyl)-5,5-difluoro-2-(4-(4-(morpholine-4-carbonyl)phenyl)-2-(perfluoroethyl)oxazol-5-yl)cyclohcxanccarboxamide], the figures for the IC50 on human cathepsin K and on human cathepsin F were 1520 nM and no less than 10000 nM, respectively.
Consider `N#CC(NC(=O)[C@@H]1CC(F)(F)CC[C@H]1c1oc(C(F)(F)C(F)(F)F)nc1-c1ccc(C(=O)N2CCOCC2)cc1)C1CCOCC1` (single isomer, unassigned) [Example 145, (1R,2R)-N-((S or R)-cyano(tetrahydro-2H-pyran-4-yl)methyl)-5,5-difluoro-2-(4-(4-(morpholine-4-carbonyl)phenyl)-2-(perfluoroethyl)oxazol-5-yl)cyclohcxanecarboxamide], for which the IC50 at human cathepsin K is 3 nM; at human cathepsin F it was 1090 nM.
On the same counts, the results for `CC(C)(O)C(C#N)NC(=O)[C@@H]1CCCC[C@H]1c1oc(-c2ccc(F)cc2)nc1-c1ccc(N2CCS(=O)(=O)CC2)cc1` (single isomer, unassigned) [Example 158, (1R,2R)-N-((R or S)-1-cyano-2-hydroxy-2-methylpropyl)-2-(4-(4-(1,1-dioxidothiomorpholino)phenyl)-2-(4-fluorophenyl)oxazol-5-yl)cyclohexanecarboxamide] are 9740 nM and no less than 10000 nM.
For `CC(C)(O)C(C#N)NC(=O)[C@@H]1CCCC[C@H]1c1oc(-c2ccc(F)cc2)nc1-c1ccc(N2CCS(=O)(=O)CC2)cc1` (single isomer, unassigned) [Example 159, (1R,2R)-N-((S or R)-1-cyano-2-hydroxy-2-methylpropyl)-2-(4-(4-(1,1-dioxidothiomorpholino)phenyl)-2-(4-fluorophenyl)oxazol-5-yl)cyclohexanecarboxamide] the same measures were 43.2 nM and 6860 nM.
On the same counts, the results for `N#CC1(NC(=O)[C@@H]2CCCC[C@H]2c2oc(-c3ccc(F)c(F)c3)nc2-c2ccc(N3CCS(=O)(=O)CC3)cc2)CC1` [Example 1, (1R,2R)—N-(1-Cyanocyclopropyl)-2-(2-(3,4-difluorophenyl)-4-(4-(1,1-dioxidothiomorpholino)phenyl)oxazol-5-yl)cyclohexanecarboxamide] are 0.39 nM and 573 nM.
Consider `N#CC1(NC(=O)[C@@H]2CCCC[C@H]2c2oc(C(F)(F)C(F)(F)F)nc2-c2ccc(N3CCS(=O)(=O)CC3)cc2)CC1` [Example 3, (1R,2R)—N-(1-Cyanocyclopropyl)-2-(4-(4-(1,1-dioxidothiomorpholino)phenyl)-2-(perfluoroethyl)oxazol-5-yl)cyclohexanecarboxamide], for which the IC50 on human cathepsin K was found to be 1.02 nM; at human cathepsin F it was 666 nM.
On the same counts, the results for `N#CC1(NC(=O)[C@@H]2CCCC[C@H]2c2oc(N3CCC(F)(F)CC3)nc2-c2ccc(N3CCS(=O)(=O)CC3)cc2)CC1` [Example 4, (1R,2R)—N-(1-Cyanocyclopropyl)-2-(2-(4,4-difluoropiperidin-1-yl)-4-(4-(1,1-dioxidothiomorpholino)phenyl)oxazol-5-yl)cyclohexanecarboxamide] are 6.37 nM and no less than 10000 nM.
On the same counts, the results for `N#CC1(NC(=O)[C@@H]2CCCC[C@H]2c2oc(-c3cccc(Cl)c3)nc2-c2ccc(N3CCS(=O)(=O)CC3)cc2)CC1` [Example 5, (1R,2R)-2-(2-(3-Chlorophenyl)-4-(4-thiomorpholino-1,1-dioxide-phenyl)oxazol-5-yl)-N-(1-cyanocyclopropyl)cyclohexanecarboxamide] are 0.56 nM and 507 nM.
On the same counts, the results for `N#CC1(NC(=O)[C@@H]2CCCC[C@H]2c2oc(-c3cccc(Cl)c3F)nc2-c2ccc(N3CCS(=O)(=O)CC3)cc2)CC1` [Example 6, (1R,2R)-2-(2-(3-chloro-2-fluorophenyl)-4-(4-(1,1-dioxidothiomorpholino)phenyl)oxazol-5-yl)-N-(1-cyanocyclopropyl)cyclohexanecarboxamide] are 0.48 nM and 631 nM.
Regarding `N#CC1(NC(=O)[C@@H]2CCCC[C@H]2c2oc(-c3ccc(F)cc3)nc2-c2ccc(N3CCS(=O)(=O)CC3)cc2)CC1` [Example 7, (1R,2R)—N-(1-Cyanocyclopropyl)-2-{4-[4-(1,1-dioxo-1λ^6-thiomorpholin-4-yl)phenyl]-2-(4-fluorophenyl)-1,3-oxazol-5-yl}cyclohexanecarboxamide], the IC50 on human cathepsin K is 1.49 nM; at human cathepsin F it was 840 nM.
On the same counts, the results for `CC(C)(C)c1nc(-c2ccc(N3CCS(=O)(=O)CC3)cc2)c([C@@H]2CCCC[C@H]2C(=O)NC2(C#N)CC2)s1` [Example 10, (1R,2R)-2-(2-(tert-butyl)-4-(4-(1,1-dioxidothiomorpholino)phenyl)thiazol-5-yl)-N-(1-cyanocyclopropyl)cyclohexanecarboxamide] are 1.65 nM and 1440 nM.
For `CC(C)(C)c1nc(-c2ccc(N3CCS(=O)(=O)CC3)cc2)c([C@@H]2CCCC[C@H]2C(=O)NC2(C#N)CC2)o1` [Example 11, (1R,2R)-2-(2-(tert-butyl)-4-(4-(1,1-dioxidothiomorpholino)phenyl)oxazol-5-yl)-N-(1-cyanocyclopropyl) cyclohexanecarboxamide] the same measures were 0.69 nM and 681 nM.
Consider `Cc1nc(-c2ccc(N3CCS(=O)(=O)CC3)cc2)c([C@@H]2CCC(F)(F)C[C@H]2C(=O)NCC#N)o1` [Example 12, (1R,2R)-N-(cyanomethyl)-2-(4-(4-(1,1-dioxidothiomorpholino)phenyl)-2-methyloxazol-5-yl)-5,5-difluorocyclohexane-carboxamide], for which the IC50 at human cathepsin K is 0.29 nM; at human cathepsin F it was 327 nM.
On the same counts, the results for `N#CC1(NC(=O)[C@@H]2CCCC[C@H]2c2oc(C(F)(F)F)nc2-c2ccc(N3CCS(=O)(=O)CC3)cc2)CC1` [Example 13, (1R,2R)-N-(1-cyanocyclopropyl)-2-(4-(4-(1,1-dioxidothiomorpholino)phenyl)-2-(trifluoromethyl)oxazol-5-yl)cyclohexanecarboxamide] are 0.46 nM and 628 nM.
On the same counts, the results for `Cc1nc(-c2ccc(N3CCS(=O)(=O)CC3)cc2)c([C@@H]2CCCC[C@H]2C(=O)NC2(C#N)CC2)o1` [Example 14, (1R,2R)-N-(1-cyanocyclopropyl)-2-(4-(4-(1,1-dioxidothiomorpholino)phenyl)-2-methyloxazol-5-yl)cyclohexanecarboxamide] are 1.08 nM and 1330 nM.
